Experimental data from US7160901B2, “Substituted indolinones, preparation thereof and their use as pharmaceutical compositions” (Boehringer Ingelheim Pharma GmbH & Co. KG, priority 2000, dated 2007).

test system: Leiomyosarcoma tumour cell line SK-UT-1B; test: Test 1: inhibition of the proliferation of cultivated human tumour cells (14C-thymidine incorporation), SK-UT-1B; format: cell-based; conditions: Homo sapiens, Skut1B; in vitro Test 1; SK-UT-1B cells; 48 hours' incubation, then 14C-thymidine for a further 24 hours; IC50 of inhibition of incorporated 14C-thymidine; read-out: Inhibition of SKUT-1B proliferation
From the text: Inhibition of the Proliferation of Cultivated Human Tumour Cells
Cells of the Leiomyosarcoma tumour cell line SK-UT-1B or non-small-cell lung tumour cell line NCI-H460 (obtained from the American Type Culture Collection (ATCC)) were cultivated in Minimum Essential Medium with non-essential amino acids (Gibco), supplemented with sodium pyruvate (1 mMol), glutamine (2 mMol) and 10% foetal calf serum (Gibco) or RPMI1640 Medium (Gibco) and 10% foetal calf serum (Gibco) and harvested in the logarithmic growth phase. Then the SK-UT-1B cells were placed in Cytostar® multi-well plates (Amersham) at a density of 4000 cells per well or 3000 cells per well for NCI-H460 cells and incubated overnight in an incubator. Various concentrations of the compounds (dissolved in DMSO; final concentration: 0.1%) were added to the cells. After 48 hours' incubation, ^14C-thymidine (Amersham) was added to each well and incubation was continued for a further 24 hours. The quantity of ^14C-thymidine which was incorporated into the tumour cells in the presence of the inhibitor and which represents the number of cells in the S phase was measured in a Wallace 1450 Microbeta Liquid Scintillation Counter. IC50 values for the inhibition of the proliferation (=inhibition of incorporated ^14C-thymidine) were calculated, correcting for the background radiation. All the measurements were done twice.
The following Table contains the results obtained with the in vitro Test 1 (++ denotes <0.01 μM, + denotes 0.01–1.0 μM): […]

| IC50 | SMILES |
| --- | --- |
| 10 to 1000 nM | CS(=O)(=O)Nc1ccc2c(c1)/C(=C(/Nc1ccc(CN3CCCCC3)cc1)c1ccccc1)C(=O)N2 [Example 98, (Z)-3-[1-(4-piperidinomethyl-phenylamino)-1-phenyl-methylidene]-5-methylsulphonylamino-2-indolinone] |
| 10 to 1000 nM | CS(=O)(=O)Nc1ccc2c(c1)/C(=C(/Nc1ccc(CN3CCCC3)cc1)c1ccccc1)C(=O)N2 [Example 145, (Z)-3-{1-[4-(pyrrolidin-1-ylmethyl)-phenylamino]-1-phenyl-methylidene}-5-methylsulphonylamino-2-indolinone] |
| 10 to 1000 nM | O=C1Nc2ccc(NS(=O)(=O)c3ccccc3)cc2/C1=C(/Nc1ccc(C(=O)NCc2ccccc2)cc1)c1ccccc1 [Example 158, (Z)-3-{1-[4-(benzylaminocarbonyl)-phenylamino]-1-phenyl-methylidene}-5-phenylsulphonylamino-2-indolinone] |
| 10 to 1000 nM | CC(=O)N(CC(=O)N(C)C)c1ccc(N/C(=C2\C(=O)Nc3ccc(NS(=O)(=O)c4ccccc4)cc32)c2ccccc2)cc1 [Example 164, (Z)-3-{1-[4-(N-dimethylaminocarbonylmethyl-N-acetyl-amino)-phenylamino]-1-phenyl-methylidene}-5-phenylsulphonylamino-2-indolinone] |
| 10 to 1000 nM | CN(C)CCN(c1ccc(N/C(=C2\C(=O)Nc3ccc(N(C)S(=O)(=O)c4ccccc4)cc32)c2ccccc2)cc1)S(C)(=O)=O [Example 207, (Z)-3-{1-[4-(N-(2-dimethylamino-ethyl)-N-methylsulphonyl-amino)-phenylamino)-1-phenyl-methylidene}-5-(N-methyl-N-phenylsulphonyl-amino)-2-indolinone] |

test system: not given; test: not given; conditions: not given

| melting point | SMILES |
| --- | --- |
| 216 °C | CC(=O)N(CCN)c1ccc(N/C(=C2\C(=O)Nc3ccc(NS(=O)(=O)c4ccccc4)cc32)c2ccccc2)cc1 [Example 1, (Z)-3-{1-[4-(N-acetyl-N-(2-aminoethyl)-amino)-phenylamino]-1-phenyl-methylidene}-5-phenylsulphonylamino-2-indolinone] |
| 266 °C | CS(=O)(=O)Nc1ccc2c(c1)/C(=C(/Nc1ccc(CN3CCCCC3)cc1)c1ccccc1)C(=O)N2 [Example 98, (Z)-3-[1-(4-piperidinomethyl-phenylamino)-1-phenyl-methylidene]-5-methylsulphonylamino-2-indolinone] |
| 248 to 249 °C | CCOC(=O)Cc1ccc(N/C(=C2\C(=O)Nc3ccc(NS(=O)(=O)c4ccccc4)cc32)c2ccccc2)cc1 [Example 152, (Z)-3-[1-(4-ethoxycarbonylmethyl-phenylamino)-1-phenyl-methylidene]-5-phenylsulphonylamino-2-indolinone] |
| 305 to 306 °C | O=C(O)Cc1ccc(N/C(=C2\C(=O)Nc3ccc(NS(=O)(=O)c4ccccc4)cc32)c2ccccc2)cc1 [Example 153, (Z)-3-[1-(4-carboxymethyl-phenylamino)-1-phenyl-methylidene]-5-phenylsulphonylamino-2-indolinone] |
| 219 to 220 °C | O=C(Cc1ccc(N/C(=C2\C(=O)Nc3ccc(NS(=O)(=O)c4ccccc4)cc32)c2ccccc2)cc1)NCc1ccccc1 [Example 154, (Z)-3-{1-[4-(benzylaminocarbonylmethyl)-phenylamino]-1-phenyl-methylidene}-5-phenylsulphonylamino-2-indolinone] |
| 216 to 217 °C | CS(=O)(=O)N(CC(N)=O)c1ccc(N/C(=C2\C(=O)Nc3ccc(NS(=O)(=O)c4ccccc4)cc32)c2ccccc2)cc1 [Example 155, (Z)-3-{1-[4-(N-(aminocarbonylmethyl)-N-methylsulphonyl-amino)-phenylamino]-1-phenyl-methylidene}-5-phenylsulphonylamino-2-indolinone] |
| 217 °C | CC(=O)N(CCN(C)C)c1ccc(N/C(=C2\C(=O)Nc3ccc(N(C)S(=O)(=O)c4ccccc4)cc32)c2ccccc2)cc1 [Example 208, (Z)-3-{1-[4-(N-(2-dimethylamino-ethyl)-N-acetyl-amino)-phenylamino)-1-phenyl-methylidene}-5-(N-methyl-N-phenylsulphonyl-amino)-2-indolinone] |
| 160 °C | CN(C(=O)CN1CCCCC1)c1ccc(N/C(=C2\C(=O)Nc3ccc(N(C)S(=O)(=O)c4ccccc4)cc32)c2ccccc2)cc1 [Example 209, (Z)-3-{1-[4-(N-methyl-N-piperidinomethylcarbonyl-amino)-phenylamino)-1-phenyl-methylidene}-5-(N-methyl-N-phenylsulphonyl-amino)-2-indolinone] |
| 226 °C | CN(C)Cc1cccc(N/C(=C2\C(=O)Nc3ccc(N(C)S(=O)(=O)c4ccccc4)cc32)c2ccccc2)c1 [Example 210, (Z)-3-[1-(3-dimethylaminomethyl-phenylamino)-1-phenyl-methylidene]-5-(N-methyl-N-phenylsulphonyl-amino)-2-indolinone] |
